# Test results: patent US20260234157A1, “COMPOUND AND METHOD FOR TARGETED DEGRADATION OF ANDROGEN RECEPTOR” (Gan & Lee Pharmaceuticals Co., Ltd., priority 2023, published 2026)
# Positions count from the first letter of the chain named. Like-named read-outs stand apart in the source and are kept apart here.
# What was measured:
# Assay type in all cases: cell-based
# AR protein [1] = target: T1, AR protein (Homo sapiens, UniProt P10275, T878A); assay: Degradation of AR protein in LNCaP cells (Western blot); settings: for inhibition at 0.01 µM: read-out: Degradation rates of the AR protein in LNCaP cells, 10 nM (%); for inhibition at 0.1 µM: read-out: Degradation rates of the AR protein in LNCaP cells, 100 nM (%)
# T1 construct: degradation activity of the compounds disclosed in the present disclosure on AR protein in LNCaP cells; host or cells: LNCaP FGC
# T1 sequence (P10275 1-920 T878A): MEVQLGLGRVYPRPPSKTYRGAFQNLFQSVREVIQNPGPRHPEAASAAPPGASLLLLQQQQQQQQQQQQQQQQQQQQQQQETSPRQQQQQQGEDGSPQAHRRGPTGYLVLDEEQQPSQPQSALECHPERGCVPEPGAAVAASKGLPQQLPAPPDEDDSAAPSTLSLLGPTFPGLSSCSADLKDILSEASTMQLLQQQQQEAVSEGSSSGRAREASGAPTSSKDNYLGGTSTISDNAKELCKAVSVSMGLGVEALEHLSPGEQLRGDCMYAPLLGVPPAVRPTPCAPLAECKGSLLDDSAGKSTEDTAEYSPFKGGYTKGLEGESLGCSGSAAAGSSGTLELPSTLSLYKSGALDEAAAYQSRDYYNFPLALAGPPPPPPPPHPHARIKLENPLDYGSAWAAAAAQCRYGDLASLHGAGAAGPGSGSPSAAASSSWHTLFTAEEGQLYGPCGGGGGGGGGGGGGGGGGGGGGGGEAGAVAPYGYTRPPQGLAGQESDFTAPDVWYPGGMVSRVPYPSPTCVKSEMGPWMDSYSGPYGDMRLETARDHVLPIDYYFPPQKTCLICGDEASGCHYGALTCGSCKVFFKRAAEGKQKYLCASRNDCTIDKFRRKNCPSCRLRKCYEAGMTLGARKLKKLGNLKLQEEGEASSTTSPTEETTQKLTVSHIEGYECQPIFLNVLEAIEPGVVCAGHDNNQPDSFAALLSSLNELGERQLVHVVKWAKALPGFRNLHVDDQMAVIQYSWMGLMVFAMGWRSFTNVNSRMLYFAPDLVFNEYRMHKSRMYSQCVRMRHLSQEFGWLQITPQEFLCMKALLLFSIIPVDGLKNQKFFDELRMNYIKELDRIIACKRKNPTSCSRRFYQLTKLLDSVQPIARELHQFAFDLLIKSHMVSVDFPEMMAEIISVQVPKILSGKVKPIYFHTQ
# Method in brief: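 Percent AR degradation was derived from GAPDH-normalised Western blot band intensities (infrared detection) in LNCaP lysates.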
# LNCaP FGC cells = assay: Inhibition of proliferation of LNCaP cells (WST-8); settings: Homo sapiens, LNCaP, 96 h
# Procedure: The cells were cultured in a cell culture incubator with 5% CO2 at 37° C. overnight. […] On the sixth day, 96 well plates were taken out, and 20 μL of WST-8 (Beytime, C0040) reagent was added to each well.
# VCaP cells = assay: Inhibition of proliferation of VCaP cells (WST-8); settings: Homo sapiens, read-out: IC50 for inhibiting the proliferation of VCaP cells
# Method in brief: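 Proliferation was read by WST-8 on day nine. Cells were VCaP FGC, seeded at 15000 cells per well in 10% FBS DMEM and kept at 37° C with 5% CO2.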
# AR protein [2] = target: T2, AR protein (Homo sapiens, UniProt P10275); assay: Degradation of AR protein in VCaP cells (Western blot); settings: 8 hours; for inhibition at 0.01 µM: compound at 10 nM, read-out: Degradation rate of the AR protein in VCaP cells, 10 nM (%); for inhibition at 0.1 µM: compound at 100 nM, read-out: Degradation rate of the AR protein in VCaP cells, 100 nM (%)
# T2 construct: degradation activity of the compounds disclosed in the present disclosure on AR protein in VCaP cells; host or cells: VCaP
# T2 sequence (P10275 1-920): T1 sequence (P10275 1-920 T878A) with A878T
# Method in brief: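 Western blot readout: AR band grayscale normalised to GAPDH, used to derive degradation rate. Lysates came from VCaP cells exposed to compound for 8 h, with solvent controls run in parallel.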
# [3] = read-out: IC50 for inhibiting the proliferation of LNCaP cells, LNCaP FGC cells, 96 hours, WST-8 absorbance at 450 nm
# [4] = LNCaP cells, compound 10 nM, 8 hours, Western blot grayscale, GAPDH internal reference
# [5] = LNCaP cells, compound 100 nM, 8 hours, Western blot grayscale, GAPDH internal reference
# [6] = LNCaP FGC cells, 96 hours, WST-8 absorbance at 450 nm, read-out: IC50 for inhibiting the proliferation of LNCaP cells
# [7] = VCaP cells, 168 hours, WST-8 absorbance at 450 nm
inhibition at 0.01 µM (AR protein [2]),inhibition at 0.1 µM (AR protein [2]),inhibition at 0.01 µM (AR protein [1]; [4]),inhibition at 0.1 µM (AR protein [1]; [5]),IC50 (LNCaP FGC cells; [6]),IC50 (VCaP cells; [7]),Structure (SMILES),"inhibition at 0.01 µM (AR protein [1]; LNCaP, 8 h)","inhibition at 0.1 µM (AR protein [1]; LNCaP, 8 h)",IC50 (LNCaP FGC cells; [3]),"IC50 (VCaP cells; VCaP, 168 h)"
56%,85%,53%,45%,49100 nM,2.5 nM,N#Cc1ccc(O[C@H]2CC[C@H](NC(=O)c3ccc(N4CCC5(CC4)CC(C(=O)N4CCC6(CC4)COc4c6ccc6c4CN(C4CCC(=O)NC4=O)C6=O)C5)nn3)CC2)cc1Cl (stereo partly drawn) [Compound 254],,,,
-43%,23%,28%,25%,96600 nM,> 90000 nM,COC1(CN2CC3(CCc4ccc5c(c4O3)C(=O)N(C3CCC(=O)NC3=O)C5=O)C2)CCN(c2ccc(C(=O)N[C@H]3CC[C@H](Oc4ccc(C#N)c(Cl)c4)CC3)nn2)CC1 (stereo partly drawn) [Compound 165],,,,
41%,54%,13%,48%,1000 nM,170 nM,N#Cc1ccc(O[C@H]2CC[C@H](NC(=O)c3ccc(N4CC(CN5CCC6(CCc7cc8c(cc7O6)C(=O)N(C6CCC(=O)NC6=O)C8=O)CC5)C4)nn3)CC2)cc1Cl (stereo partly drawn) [Compound 20],,,,
58%,64%,71%,84%,600 nM,230 nM,N#Cc1ccc(O[C@H]2CC[C@H](NC(=O)c3ccc(N4CC[C@H](CN5CCC6(CCc7cc8c(cc7O6)C(=O)N(C6CCC(=O)NC6=O)C8=O)CC5)C4)nn3)CC2)cc1Cl (stereo partly drawn) [Compound 22],,,,
18%,35%,38%,36%,8660 nM,4010 nM,COC1(CN2CCC3(CC2)COc2ccc4c(c2C3)C(=O)N(C2CCC(=O)NC2=O)C4)CCN(c2ccc(C(=O)N[C@H]3CC[C@H](Oc4ccc(C#N)c(Cl)c4)CC3)nn2)CC1 (stereo partly drawn) [Compound 148],,,,
63%,82%,55%,44%,50200 nM,11 nM,N#Cc1ccc(O[C@H]2CC[C@H](NC(=O)c3ccc(N4CC5(CCC(C(=O)N6CCC7(CC6)COc6c7ccc7c6CN(C6CCC(=O)NC6=O)C7=O)CC5)C4)nn3)CC2)cc1Cl (stereo partly drawn) [Compound 255],,,,
67%,81%,0%,65%,500 nM,240 nM,N#Cc1ccc(O[C@H]2CC[C@H](NC(=O)c3ccc(N4CCC5(CC(N6CCC7(CC6)COc6cc8c(cc6C7)C(=O)N(C6CCC(=O)NC6=O)C8=O)C5)C4)nn3)CC2)cc1Cl (stereo partly drawn) [Compound 63],,,,
11%,54%,65%,69%,13500 nM,22 nM,N#Cc1ccc(O[C@H]2CC[C@H](NC(=O)c3ccc(C#Cc4ccc(N5CCC6(CC5)COc5c6ccc6c5CN(C5CCC(=O)NC5=O)C6=O)nc4)nn3)CC2)cc1Cl (stereo partly drawn) [Compound 239],,,,

# Further lines, the compound ahead of its results:
Structure (SMILES),inhibition at 0.01 µM (AR protein [2]),inhibition at 0.1 µM (AR protein [2]),inhibition at 0.01 µM (AR protein [1]; [4]),inhibition at 0.1 µM (AR protein [1]; [5]),IC50 (LNCaP FGC cells; [6]),IC50 (VCaP cells; [7]),"inhibition at 0.01 µM (AR protein [1]; LNCaP, 8 h)","inhibition at 0.1 µM (AR protein [1]; LNCaP, 8 h)",IC50 (LNCaP FGC cells; [3]),"IC50 (VCaP cells; VCaP, 168 h)"
N#Cc1ccc(O[C@H]2CC[C@H](NC(=O)c3ccc(N4CC(N5CCC6(CCc7cc8c(cc7O6)C(=O)N(C6CCC(=O)NC6=O)C8=O)CC5)C4)nn3)CC2)cc1Cl (stereo partly drawn) [Compound 25],13%,32%,,,,,49%,43%,390 nM,910 nM
COc1cc(O[C@H]2CC[C@H](NC(=O)c3ccc(N4CCC(CN5CCC6(CC5)COc5c6ccc6c5C(=O)N(C5CCC(=O)NC5=O)C6=O)(OC)CC4)cc3)CC2)ccc1C#N (stereo partly drawn) [Compound 219],11%,70%,,,,,-40%,21%,260 nM,60 nM
N#Cc1ccc(O[C@H]2CC[C@H](NC(=O)c3ccc(N4CC(CN5CCC6(CC5)COc5cc7c(cc56)C(=O)N(C5CCC(=O)NC5=O)C7=O)C4)nn3)CC2)cc1Cl (stereo partly drawn) [Compound 55],77%,80%,44%,69%,1000 nM,83 nM,,,,
COc1cc(O[C@H]2C(C)(C)[C@H](NC(=O)c3ccc(N4CCC(C)(CN5CCC6(CC5)COc5c6ccc6c5CN(C5CCC(=O)NC5=O)C6=O)CC4)cc3)C2(C)C)ccc1C#N (stereo partly drawn) [Compound 221],16%,64%,24%,76%,46 nM,1.5 nM,,,,
N#Cc1ccc(O[C@H]2CC[C@H](NC(=O)c3ccc(N4CC[C@H](CN5CCC6(CC5)COc5cc7c(cc56)C(=O)N(C5CCC(=O)NC5=O)C7=O)C4)nn3)CC2)cc1Cl (stereo partly drawn) [Compound 58],91%,93%,33%,58%,1800 nM,69 nM,,,,
CCOC1(CN2CCC3(CC2)COc2c3ccc3c2C(=O)N(C2CCC(=O)NC2=O)C3=O)CCN(c2ccc(C(=O)N[C@H]3CC[C@H](Oc4ccc(C#N)c(OC)c4)CC3)nn2)CC1 (stereo partly drawn) [Compound 243],16%,68%,24%,58%,120 nM,18 nM,,,,
N#Cc1ccc(O[C@H]2CC[C@H](NC(=O)c3ccc(N4CCN(C(=O)CN5CCC6(CC5)COc5c6ccc6c5CN(C5CCC(=O)NC5=O)C6=O)CC4)nn3)CC2)cc1Cl (stereo partly drawn) [Compound 233],74%,87%,49%,62%,34300 nM,43 nM,,,,
